Test results published in the supplement of paper PMC10307832.

What was measured:
Experiment in all cases: relative viability (nuclei count vs DMSO), 5 days (fraction); higher = more cells survive
Apatinib + Bortezomib = compound: N#CC1(c2ccc(NC(=O)c3cccnc3NCc3ccncc3)cc2)CCCC1 [Apatinib] + CC(C)C[C@H](NC(=O)[C@H](Cc1ccccc1)NC(=O)c1cnccn1)B(O)O [Bortezomib] (partner 0.002 µM)
Outline: (§1)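 A single step with final 0.05% Triton X-100, 1% formaldehyde and 1 ug/ml Hoechst fixed the cells and stained nuclei 5 days after treatment. Lung cancer cell lines in 1536-well plates had been treated by pin tool the day after seeding with one drug alone or a fixed anchor-drug dose plus five library-drug doses (not always all listed) in √10 steps, and nuclei were counted on 4× images. Relative viability is the ratio of nuclei in treated wells to nuclei in vehicle wells, taken as the median of duplicate plates.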

Apatinib + Lapatinib = compound: N#CC1(c2ccc(NC(=O)c3cccnc3NCc3ccncc3)cc2)CCCC1 [Apatinib] + CS(=O)(=O)CCNCc1ccc(-c2ccc3ncnc(Nc4ccc(OCc5cccc(F)c5)c(Cl)c4)c3c2)o1 [Lapatinib] (partner 2 µM)
Outline: as §1

Metformin + Phenformin = compound: CN(C)C(=N)NC(=N)N [Metformin] + N=C(N)NC(=N)NCCc1ccccc1 [Phenformin] (partner 250 µM)
Outline: as §1

Metformin + Tozasertib = compound: CN(C)C(=N)NC(=N)N [Metformin] + Cc1cc(Nc2cc(N3CCN(C)CC3)nc(Sc3ccc(NC(=O)C4CC4)cc3)n2)n[nH]1 [Tozasertib] (partner 0.1 µM)
Outline: as §1

Cell Line	relative viability (Apatinib + Bortezomib; first compound 0.08 µM)	relative viability (Apatinib + Bortezomib; first compound 0.253 µM)	relative viability (Apatinib + Bortezomib; first compound 0.8 µM)	relative viability (Apatinib + Bortezomib; first compound 2.53 µM)	relative viability (Apatinib + Bortezomib; first compound 8 µM)	relative viability (Apatinib + Lapatinib; first compound 0.08 µM)	relative viability (Apatinib + Lapatinib; first compound 0.253 µM)	relative viability (Apatinib + Lapatinib; first compound 0.8 µM)	relative viability (Apatinib + Lapatinib; first compound 2.53 µM)	relative viability (Apatinib + Lapatinib; first compound 8 µM)	relative viability (Metformin + Phenformin; first compound 10 µM)	relative viability (Metformin + Phenformin; first compound 31.62 µM)	relative viability (Metformin + Phenformin; first compound 100 µM)	relative viability (Metformin + Phenformin; first compound 316.23 µM)	relative viability (Metformin + Phenformin; first compound 1000 µM)	relative viability (Metformin + Tozasertib; first compound 10 µM)	relative viability (Metformin + Tozasertib; first compound 31.62 µM)	relative viability (Metformin + Tozasertib; first compound 100 µM)	relative viability (Metformin + Tozasertib; first compound 316.23 µM)	relative viability (Metformin + Tozasertib; first compound 1000 µM)
NCI-H1703	0.325	0.297	0.257	0.175	0.154	1.01	0.685	0.291	0.228	0.276	–	–	–	–	–	–	–	–	–	–
NCI-H1563	0.762	0.963	0.811	0.737	0.762	0.682	1.03	0.943	0.891	0.834	0.704	0.702	0.647	0.663	0.56	–	–	–	–	–
NCI-H1623	–	–	–	–	–	–	–	–	–	–	0.556	0.553	0.569	0.577	0.371	0.363	0.413	0.452	0.337	0.452
Calu-6	0.969	1.12	0.96	0.789	0.814	1.13	1.1	0.988	0.919	0.789	–	–	–	–	–	–	–	–	–	–
NCI-H1299	1.06	1.02	0.987	1.03	0.908	0.99	1.01	0.981	0.938	0.773	–	–	–	–	–	–	–	–	–	–
A549	–	–	–	–	–	1.14	1.05	1.04	0.944	0.842	0.0727	0.111	0.127	0.124	0.154	–	–	–	–	–
NCI-H522	–	–	–	–	–	–	–	–	–	–	0.716	0.649	0.713	0.584	0.712	0.68	0.695	0.693	0.609	0.764
NCI-H2170	–	–	–	–	–	0.307	0.241	0.466	0.271	0.281	0.369	0.434	0.444	0.441	0.469	0.731	0.733	0.779	0.758	0.693
SK-MES-1	–	–	–	–	–	0.473	0.473	0.512	0.414	0.502	0.504	0.534	0.545	0.495	0.512	0.624	0.693	0.75	0.662	0.771
NCI-H441	0.615	0.481	0.592	0.322	0.217	–	–	–	–	–	–	0.707	0.706	0.586	0.803	–	0.448	0.511	0.438	0.587
NCI-H1944	–	–	–	–	–	0.832	0.863	0.736	0.745	0.739	0.205	0.2	0.19	0.169	0.209	0.314	0.279	0.288	0.245	0.297
